# Reference: patent US10683487B2, “Myrmecridium flexuosum NUK-21, novel lactose oxidase isolated from Myrmecridium flexuosum NUK-21, and method for conversion of lactose into lactobionic acid by novel lactose oxidase” (NATIONAL UNIVERSITY OF KAOHSIUNG, priority 2017, dated 2020)
# Where two headings read alike, the source gives them in different places.
# B1: Glucooligosaccharide oxidase: carbohydrate oxidase from Acremonium strictum (protein, UniProt Q6PW77 26-499, looked up)
# Glucooligosaccharide oxidase: NSINACLAAADVEFHEEDSEGWDMDGTAFNLRVDYDPAAIAIPRSTEDIAAAVQCGLDAGVQISAKGGGHSYGSYGFGGEDGHLMLELDRMYRVSVDDNNVATIQGGARLGYTALELLDQGNRALSHGTCPAVGVGGHVLGGGYGFATHTHGLTLDWLIGATVVLADASIVHVSETENADLFWALRGGGGGFAIVSEFEFNTFEAPEIITTYQVTTTWNRKQHVAGLKALQDWAQNTMPRELSMRLEINANALNWEGNFFGNAKDLKKILQPIMKKAGGKSTISKLVETDWYGQINTYLYGADLNITYNYDVHEYFYANSLTAPRLSDEAIQAFVDYKFDNSSVRPGRGWWIQWDFHGGKNSALAAVSNDETAYAHRDQLWLWQFYDSIYDYENNTSPYPESGFEFMQGFVATIEDTLPEDRKGKYFNYADTTLTKEEAQKLYWRGNLEKLQAIKAKYDPEDVFGNVVSVEPIA
# What was measured:
# [1] = test system: lactose oxidase of the NUK-21 strain; assay: Effects of chemicals on enzyme activity (dissolved oxygen assay); format: biochemical, Myrmecridium flexuosum NUK-21
# Experimental: The purified enzyme was added to A buffer containing 1 mM of various chemical solution and incubated in a water bath at 30° C. for 1 hour. Dissolved oxygen assay was used to determine the enzyme activity of lactose oxidase.
# NUK-21 strain = format: cell-based, Myrmecridium flexuosum NUK-21
# [2] = test system: lactose oxidase of the NUK-21 strain; format: biochemical, Myrmecridium flexuosum NUK-21
# [3] = test system: lactose oxidase of the NUK-21 strain; assay: Substrate specificity of lactose oxidase (OD500 nm peroxidase chromogen assay); format: biochemical, Myrmecridium flexuosum NUK-21
# Experimental: Fifty mM of various buffers with different pH values were prepared, including CH3COOH—CH3COONa (pH 4.5-5.5), K2HPO4—NaH2PO4 (pH 5.5-8.0), Tris-HCl (pH 7.0-9.0), and Na2CO3—NaHCO3 (pH 9.0-11). Enzyme activity was determined by peroxidase chromogen method (Clin Chem, 1974; 20:470-475). The substrate, buffer and enzyme were premixed and reacted for 2 minutes, and then 4-aminoantipyrine (4-AA) coloring solution was added for reaction. A spectrophotometer was used to detect the absorbance of OD500 nm at room temperature (detection at every 15 seconds for a total of 90 seconds). The principle of the 4-AA assay is that the lactose oxidase oxidized lactose to lactobionic acid, which reduces dissolved oxygen to hydrogen peroxide, and the hydrogen peroxide, phenol, and 4-AA were catalyzed by the peroxidase to produce a red quinoneimine structure and show a stable signal at OD 500 nm.
# The enzyme activity was defined as the enzyme concentration that produces 1 μmole hydrogen peroxide per minute. […] Calculation of enzyme activity: unit/ml=(ΔA500 nm/t)×(Vt/6.8)×(1/Ve)×n, in which ΔA500 nm:A500 nm variation in t minutes, 6.8: absorption coefficient of chromogenic material (mM^−1 cm^−1), Vt: total reaction volume, Ve: volume of enzyme was added, and n: fold of dilution of enzyme solution.
# A spectrophotometer was used to detect the absorbance of OD500 nm at room temperature (detection at every 15 seconds for a total of 90 seconds), and the enzyme activity was determined.
# carbohydrate oxidases = settings: cited from earlier work
# [4] = test system: carbohydrate oxidases from different strains; settings: cited from earlier work
# [5] = metal ions 0.01%, 4% wheat bran medium, 30° C., 4 days
# [6] = metal ions 1 mM, 30° C., 1 hour, 0.7 mM lactose
molecule,measurement,setting,value
"c1cnc2c(c1)ccc1cccnc12 [1,10-phenanthroline]",Relative activity,"[1]; chemical 1 mM, 30° C., 1 hour",98.8%
"O=C(CBr)c1ccc(Br)cc1 [2,4′-dibromoacetophenone]",Relative activity,"[1]; chemical 1 mM, 30° C., 1 hour",99%
O=[N+]([O-])[O-].[Ag+] [AgNO3],Enzyme activity,NUK-21 strain; [5],0.28 unit/ml
same,Relative activity,[2]; [6],107.9%
O=S(=O)([O-])[O-].O=S(=O)([O-])[O-].O=S(=O)([O-])[O-].[Al+3].[Al+3] [Al2(SO4)3],Enzyme activity,NUK-21 strain; [5],0.37 unit/ml
[Ca+2].[Cl-].[Cl-] [CaCl2],Enzyme activity,NUK-21 strain; [5],0.20 unit/ml
same,Relative activity,[2]; [6],109.5%
O=S(=O)([O-])[O-].[Cd+2] [CdSO4],Enzyme activity,NUK-21 strain; [5],0.42 unit/ml
same,Relative activity,[2]; [6],100%
O=C[C@H](O)[C@@H](O)[C@H](O[C@@H]1O[C@H](CO)[C@@H](O)[C@H](O)[C@H]1O)[C@H](O)CO [Cellobiose],Relative activity,[3]; 0.7 mM substrate,83.4%
same,Relative activity,[3]; 7 mM substrate,81.7%
[Cl-].[Cl-].[Co+2] [CoCl2],Enzyme activity,NUK-21 strain,0.26 unit/ml
same,Relative activity,[2],110.2%
O=S(=O)([O-])[O-].[Cu+2] [CuSO4],Enzyme activity,NUK-21 strain; [5],0.61 unit/ml
same,Relative activity,[2]; [6],96.8%
O=C(O)CN(CCN(CC(=O)O)CC(=O)O)CC(=O)O [EDTA],Relative activity,[1],136.3%
same,effect on enzyme activity (in words),[1],activated
O=S(=O)([O-])[O-].O=S(=O)([O-])[O-].O=S(=O)([O-])[O-].[Fe+3].[Fe+3] [Fe2(SO4)3],Enzyme activity,NUK-21 strain; [5],0.25 unit/ml
[Cl][Fe]([Cl])[Cl] [FeCl3],Enzyme activity,NUK-21 strain; [5],0.27 unit/ml
same,Relative activity,[2]; [6],103.2%
O=S(=O)([O-])[O-].[Fe+2] [FeSO4],Relative activity,[2]; [6],61.1%
same,Relative activity,"[2]; metal ions 1 mM, 30° C., 1 hour, 0.7 mM lactose, listed as Fe^2+",61.3%
O=C(CO)[C@@H](O)[C@H](O)[C@H](O)CO [Fructose],Relative activity,[3]; 0.7 mM substrate,0%
same,Relative activity,[3]; 7 mM substrate,0%
O=C[C@H](O)[C@@H](O)[C@@H](O)[C@H](O)CO [Galactose],Relative activity,[3]; 0.7 mM substrate,0%
same,Relative activity,[3]; 7 mM substrate,1.8%
OO [H2O2],Relative activity,"[1]; chemical 1 mM, 30° C., 1 hour",100%
[Cl][Hg][Cl] [HgCl2],Enzyme activity,NUK-21 strain; [5],0.02 unit/ml
same,Relative activity,[2]; [6],153.8%
O=S(=O)([O-])[O-].[K+].[K+] [K2SO4],Enzyme activity,NUK-21 strain; [5],0.26 unit/ml
OC[C@H]1O[C@@H](O[C@H]2[C@H](O)[C@@H](O)C(O)O[C@@H]2CO)[C@H](O)[C@@H](O)[C@H]1O (stereo partly shown) [Lactose],Relative activity,[3]; 0.7 mM substrate,100%
same,Relative activity,[3]; 7 mM substrate,100%
OC[C@H]1O[C@H](O[C@H]2[C@H](O)[C@@H](O)[C@H](O)O[C@@H]2CO)[C@H](O)[C@@H](O)[C@@H]1O [Maltose],Relative activity,[3]; 0.7 mM substrate,4.1%
same,Relative activity,[3]; 7 mM substrate,24.8%
O=S(=O)([O-])[O-].[Mn+2] [MnSO4],Enzyme activity,NUK-21 strain; [5],0.37 unit/ml
CCN1C(=O)C=CC1=O [N-ethylmaleimide],effect on enzyme activity (in words),[1]; chemical 1 mM,activated
same,Relative activity,"[1]; chemical 1 mM, 30° C., 1 hour",139.5%
O=S(=O)([O-])[O-].[Na+].[Na+] [Na2SO4],Enzyme activity,NUK-21 strain; [5],0.26 unit/ml
[N-]=[N+]=[N-].[Na+] [NaN3],effect on enzyme activity (in words),[1]; chemical 1 mM,activated
same,Relative activity,"[1]; chemical 1 mM, 30° C., 1 hour",131.3%
[Cl][Ni][Cl] [NiCl2],Enzyme activity,NUK-21 strain; [5],0.43 unit/ml
O=S(=O)([O-])[O-].[Ni+2] [NiSO4],Relative activity,[2]; [6],100%
O=S(=O)(F)Cc1ccccc1 [PMSF],Relative activity,"[1]; chemical 1 mM, 30° C., 1 hour",104.9%
[Cl][Pb][Cl] [PbCl2],Enzyme activity,NUK-21 strain; [5],0.29 unit/ml
same,Relative activity,[2]; [6],89.7%
[Cl][Sn][Cl] [SnCl2],Relative activity,[2]; [6],61.3%
same,Relative activity,"[2]; metal ions 1 mM, 30° C., 1 hour, 0.7 mM lactose, listed as Sn^2+",89.7%
[Cl][Sn]([Cl])([Cl])[Cl] [SnCl4],Enzyme activity,NUK-21 strain; [5],0.32 unit/ml
OC[C@@H](O)[C@@H](O)[C@H](O)[C@@H](O)CO [Sorbitol],Relative activity,[3]; 0.7 mM substrate,0%
same,Relative activity,[3]; 7 mM substrate,0%
OC[C@H]1O[C@@](CO)(O[C@H]2O[C@H](CO)[C@@H](O)[C@H](O)[C@H]2O)[C@@H](O)[C@@H]1O [Sucrose],Relative activity,[3]; 0.7 mM substrate,0%
same,Relative activity,[3]; 7 mM substrate,0%
OC[C@@H](O)[C@H](O)[C@@H](O)CO [Xylitol],Relative activity,[3]; 0.7 mM substrate,0%
same,Relative activity,[3]; 7 mM substrate,0%
O=C[C@H](O)[C@@H](O)[C@H](O)CO [Xylose],Relative activity,[3]; 0.7 mM substrate,0%
same,Relative activity,[3]; 7 mM substrate,0%
O=S(=O)([O-])[O-].[Zn+2] [ZnSO4],Enzyme activity,NUK-21 strain; [5],0.22 unit/ml
O=C(O)[C@H](O)[C@@H](O)[C@H](O[C@@H]1O[C@H](CO)[C@H](O)[C@H](O)[C@H]1O)[C@H](O)CO [lactobionic acid],Relative activity,[3]; 0.7 mM substrate,0%
same,Relative activity,[3]; 7 mM substrate,0%
B1,optimum pH,carbohydrate oxidases,10
same,Substrate specificity,[4]; cellobiose,120%
same,Substrate specificity,[4]; lactose,100%
same,Km,[4]; substrate cellobiose,120 µM
same,Km,[4]; substrate lactose,380 µM
